# Patent publication US10336701B2, “Pyridin-2-one derivatives of formula (II) useful as EP3 receptor antagonists” (Janssen Pharmaceutica NV, priority 2017, dated 2019)
# pIC50, pKi: −log10 of the molar value.
# Experiments:
# EP3 receptor [1] = target: T1, EP3 receptor (Homo sapiens, UniProt P43115); assay: [3H]-PGE2 binding assay (EP3 competition binding); conditions: read-out: [3H]-PGE2 Binding Ki
# T1 construct: purchased Millipore HTS092M
# T1 sequence (P43115 1-390): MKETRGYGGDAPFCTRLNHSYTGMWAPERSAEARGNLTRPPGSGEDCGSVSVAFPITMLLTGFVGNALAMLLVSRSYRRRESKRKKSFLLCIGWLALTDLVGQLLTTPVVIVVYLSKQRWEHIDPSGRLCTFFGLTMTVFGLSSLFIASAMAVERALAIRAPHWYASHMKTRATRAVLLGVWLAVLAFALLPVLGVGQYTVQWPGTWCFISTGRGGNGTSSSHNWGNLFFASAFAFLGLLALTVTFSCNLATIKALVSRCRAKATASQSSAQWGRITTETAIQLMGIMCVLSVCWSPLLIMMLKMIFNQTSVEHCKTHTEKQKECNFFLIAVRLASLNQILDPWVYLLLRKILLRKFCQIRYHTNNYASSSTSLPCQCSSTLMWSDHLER
# Protocol: EP3 competition binding was determined using the following materials and experimental conditions:
# Beads=Perkin Elmer RPNQ0001
# EP3 membrane=Millipore HTS092M
# Membrane concentration=2 μg/well
# Beads concentration=0.25 mg/well
# [3H]-PGE2=2 nM; DMSO—0.1%
# Binding buffer=50 mM Tris, 10 mM MgCl2, 1 mM • EDTA, PH 7.4.
# The binding buffer was removed from refrigeration (@ 4° C.) and allowed to warm to room temperature. Test compound (@ stock concentration of […] in DMSO) was serial dilutes (1:3) with 100% DMSO using Echo plate. Diluted test compound (30 nL) was dispensed to the 384-well assay plate (using Echo 550 Labcyte System). To each well was then added assay buffer (5 μl) and each well was spun. Beads were weighed out, dissolved in assay buffer to a concentration of 0.25 mg/15 μl. Original membrane was diluted with assay buffer to a concentration of 2 μg/5 μl. […] To each test well were then added diluted [3H]-PGE2 (5 μl), diluted membrane (5 μl), and dissolved beads (15 μl). The plate was equilibrated at room temperature on a plate shaker for 2 hours and then read with a TOPCOUNT scintillation plate reader. Results were analyzed using a Prism program with non-linear regression, one-site fit for Ki.
# EP3 receptor [2] = target: T1, EP3 receptor; assay: CHO cell cAMP assay (forskolin and sulprostone stimulated, HTRF); assay type: cell-based; conditions: CHO cells; sulprostone 700 nM (EC80) and FSK 2 μM (EC70), 37° C. for 30 minutes; read-out: CHO_cAMP IC50
# Protocol: For detection, a homogeneous competitive immunoassay (Time Resolved Fluorescence Energy Transfer (hTR-FRET)) was used.
# Cells (6K cells per well) were plated in Poly-D-Lysine coated plates the day before the assay was to be run and were incubated at 37° C. […] At the start of the assay the buffer was removed from the cells and replaced with buffer containing test compound(s). Sulprostone at an EC80 dose (700 nM) and FSK at an EC70 dose (2 μM) were added to initiate the reaction (37° C. for 30 minutes).
# FSK increases cAMP production and sulprostone decreases cAMP production produced by FSK. In this assay, EP3 antagonists will increase the cAMP to the level of cAMP generated by FSK alone.
# Approximately one hour later the plates were read on an Envision (Perkin Elmer) in HTRF mode.
# NSP, NSN, NSsample were converted to nM cAMP using the following equation: […]
# IC50 values were determined from a […] (Hill equation) of a single 11-point compound dosing.
pKi (EP3 receptor [1]),pIC50 (EP3 receptor [2]),Structure (SMILES)
7.92,7.18,"CC(C)C(Cc1ccc(-c2ccc3cccc(F)c3c2)[nH]c1=O)c1nnc[nH]1 (stereo not shown) [compound 309, 6-(8-Fluoronaphthalen-2-yl)-3-(3-methyl-2-(4H-1,2,4-triazol-3-yl)butyl)pyridin-2(1H)-one]"
8.70,7.10,"CCn1ncc2c(F)cc(-c3ccc(C4(O)CCCN(S(=O)(=O)C(C)C)C4)c(=O)[nH]3)cc21 (stereo not shown) [compound 295, 6-(1-ethyl-4-fluoro-1H-indazol-6-yl)-3-(3-hydroxy-1-(isopropylsulfonyl)piperidin-3-yl)pyridin-2(1H)-one]"
7.34,6.68,"CC(C)C(Cc1ccc(-c2ccc3cccc(F)c3c2)[nH]c1=O)C1OC(=O)NC1=O (stereo not shown) [Compound #308, 5-(1-(6-(8-fluoronaphthalen-2-yl)-2-oxo-1,2-dihydropyridin-3-yl)-3-methylbutan-2-yl)oxazolidine-2,4-dione]"
8.30,7.70,"CC(C)C1(c2ccc(-c3ccc4cccc(F)c4c3)[nH]c2=O)C(=O)Nc2nccn21 (stereo not shown) [compound 155, 3-(6-(8-fluoronaphthalen-2-yl)-2-oxo-1,2-dihydropyridin-3-yl)-3-isopropyl-1H-imidazo[1,2-a]imidazol-2(3H)-one]"
7.31,6.74,CC1(c2ccc(-c3ccc4ccccc4c3)[nH]c2=O)CN/C(=N\C#N)N1 (stereo not shown) [compound 283]
8.40,7.92,"CO/N=C1\NC(=O)C(c2ccc(-c3ccc4cccc(F)c4c3)[nH]c2=O)(C(C)C)N1 (stereo not shown) [compound 237, (Z)-6-(8-fluoronaphthalen-2-yl)-3-(4-isopropyl-2-(methoxyimino)-5-oxoimidazolidin-4-yl)pyridin-2(1H)-one]"
7.55,6.62,"CC(C)C(CC(=O)NCCN(C)C)c1ccc(-c2ccc3cccc(F)c3c2)[nH]c1=O (stereo not shown) [compound 259, N-(2-(dimethylamino)ethyl)-3-(6-(8-fluoronaphthalen-2-yl)-2-oxo-1,2-dihydropyridin-3-yl)-4-methylpentanamide]"
8.22,7.85,"CC(C)C(NC(N)=O)c1ccc(-c2ccc3cccc(F)c3c2)[nH]c1=O (stereo not shown) [compound 267, 1-(1-(6-(8-fluoronaphthalen-2-yl)-2-oxo-1,2-dihydropyridin-3-yl)-2-methylpropyl)urea]"
7.40,5.55,"CS(=O)(=O)N1CCC(c2ccc(-c3ccc4ccccc4c3)[nH]c2=O)CC1 [compound 186, 3-(1-(methylsulfonyl)piperidin-4-yl)-6-(naphthalen-2-yl)pyridin-2(1H)-one]"
8.22,7.77,"CC(C)C(N/C(N)=N/C#N)c1ccc(-c2ccc3cccc(F)c3c2)[nH]c1=O (stereo not shown) [compound 268, (E)-2-cyano-1-(1-(6-(8-fluoronaphthalen-2-yl)-2-oxo-1,2-dihydropyridin-3-yl)-2-methylpropyl)quanidine]"
< 5.00,< 4.70,"CC(C)C(CC1OC(=O)NC1=O)c1ccc(-c2cc(Cl)c3c(c2)ncn3C)[nH]c1=O (stereo not shown) [compound 107, 5-(2-(6-(7-chloro-1-methyl-1H-benzo[d]imidazol-5-yl)-2-oxo-1,2-dihydropyridin-3-yl)-3-methylbutyl)oxazolidine-2,4-dione]"
7.42,5.90,"CC(C)S(=O)(=O)N1CCC(c2ccc(-c3ccc4ccccc4c3)[nH]c2=O)CC1 [compound 200, 3-(1-(isopropylsulfonyl)piperidin-4-yl)-6-(naphthalen-2-yl)pyridin-2(1H)-one]"
< 5.00,4.77,"CC(C)C(C(=O)NCCN(C)C)c1ccc(-c2ccc3ncsc3c2)[nH]c1=O (stereo not shown) [compound 246, 2-(6-(benzo[d]thiazol-6-yl)-2-oxo-1,2-dihydropyridin-3-yl)-N-(2-(dimethylamino)ethyl)-3-methylbutanamide]"
6.97,5.85,"O=C1NC(=O)C2(CCC(c3ccc(-c4ccc5ccccc5c4)[nH]c3=O)CC2)N1 (stereo not shown) [compound 203, 8-(6-(naphthalen-2-yl)-2-oxo-1,2-dihydropyridin-3-yl)-1,3-diazaspiro[4.5]decane-2,4-dione]"
7.51,6.60,"CC(C)C(NS(=O)(=O)C1CCCCC1)c1ccc(-c2ccc3cccc(F)c3c2)[nH]c1=O (stereo not shown) [Compound #165, N-(1-(6-(8-fluoronaphthalen-2-yl)-2-oxo-1,2-dihydropyridin-3-yl)-2-methylpropyl)cyclohexanesulfonamide]"
7.57,6.94,"CCn1ncc2c(F)cc(-c3ccc(C(CN4CCN(S(C)(=O)=O)CC4)C(C)C)c(=O)[nH]3)cc21 (stereo not shown) [Compound #109, 6-(1-ethyl-4-fluoro-1H-indazol-6-yl)-3-(3-methyl-1-(4-(methylsulfonyl)piperazin-1-yl)butan-2-yl)pyridin-2(1H)-one]"
7.57,7.02,"CC(C)C(c1ccc(-c2ccc3cccc(F)c3c2)[nH]c1=O)n1cnc(N)n1 (stereo not shown) [compound 161, 3-(1-(3-amino-1H-1,2,4-triazol-1-yl)-2-methylpropyl)-6-(8-fluoronaphthalen-2-yl)pyridin-2(1H)-one]"
7.29,6.32,"CCN1CCOc2ccc(-c3ccc(C(C(C)C)N4CCS(=O)(=O)CC4)c(=O)[nH]3)cc21 (stereo not shown) [Compound #169, 3-(1-(1,1-dioxidothiomorpholino)-2-methylpropyl)-6-(4-ethyl-3,4-dihydro-2H-benzo[b][1,4]oxazin-6-yl)pyridin-2(1H)-one]"
7.70,6.64,"CCn1ncc2c(F)cc(-c3ccc(C(CC)(CC)CC4OC(=O)NC4=O)c(=O)[nH]3)cc21 (stereo not shown) [compound 56, 5-(2-ethyl-2-(6-(1-ethyl-4-fluoro-1H-indazol-6-yl)-2-oxo-1,2-dihydropyridin-3-yl)butyl)oxazolidine-2,4-dione]"
6.46,5.56,"CC(C)C(CC(=O)Nc1nccs1)c1ccc(-c2ccc3cccc(F)c3c2)[nH]c1=O (stereo not shown) [compound 254, 3-(6-(8-fluoronaphthalen-2-yl)-2-oxo-1,2-dihydropyridin-3-yl)-4-methyl-N-(thiazol-2-yl)pentanamide]"
< 5.00,< 4.70,"O=c1[nH]c(-c2ccc3ccccc3c2)ccc1C1CCNCC1 [compound 194, 6-(naphthalen-2-yl)-3-(piperidin-4-yl)pyridin-2(1H)-one]"
6.40,5.40,"CC(C)C(C(=O)NCCN(C)C)c1ccc(-c2ccc3cc(F)ccc3c2)[nH]c1=O (stereo not shown) [compound 242, N-(2-(dimethylamino)ethyl)-2-(6-(6-fluoronaphthalen-2-yl)-2-oxo-1,2-dihydropyridin-3-yl)-3-methylbutanamide]"
6.37,5.67,"CC1(c2ccc(-c3ccc4ccccc4c3)[nH]c2=O)C(=O)Nc2nncn21 (stereo not shown) [compound 152, 3-[5-methyl-6-oxo-5H, 6H, 7H-imidazo[2,1-c][1,2,4]triazol-5-yl]-6-(naphthalen-2-yl)-1,2-dihydropyridin-2-one]"
7.92,7.23,"CC(C)C(Cc1ccc(-c2ccc3cccc(F)c3c2)[nH]c1=O)C(N)=O (stereo not shown) [compound 253, 2-((6-(8-fluoronaphthalen-2-yl)-2-oxo-1,2-dihydropyridin-3-yl)methyl)-3-methylbutanamide]"
6.80,5.06,"CC1(c2ccc(-c3ccc4ccccc4c3)[nH]c2=O)CNC(N)=N1 (stereo not shown) [compound 287, 3-(2-amino-4-methyl-4,5-dihydro-1H-imidazol-4-yl)-6-(naphthalen-2-yl)pyridin-2(1H)-one]"
5.87,< 4.70,"CCn1ncc2c(F)c(-c3ccc(C(/C=C4/OC(=O)NC4=O)(CC)CC)c(=O)[nH]3)ccc21 [compound 12, (E)-5-(2-ethyl-2-(6-(1-ethyl-4-fluoro-1H-indazol-5-yl)-2-oxo-1,2-dihydropyridin-3-yl)butylidene)oxazolidine-2,4-dione]"
